One data set can be described thus: Release into ethanol. In kind it is physicochemical. Particulars: for Encapsulated dye released: ethanol. As for the experimental part: (§1) The sample was suspended in 50/50 v/v ethanol/water (10 mL) with stirring. At each time point, the sample was centrifuged (10,000 rpm, 10 minutes) and the supernatant removed. Fresh solvent was then added and the solid resuspended. In comparison, the release of dye from a similar sample into 100% ethanol solution is very rapid, with about 40% of the dye released after several minutes.
(§2) The sample was suspended in 50/50 v/v ethanol/water (10 mL) with stirring. At each time point, the sample was centrifuged (10,000 rpm, 10 minutes) and the supernatant removed. Fresh solvent was then added and the solid resuspended. In contrast to the slow release into ethanol/water, the release into ethanol is very rapid, with approximately 70% of the encapsulated dye released within one hour.
The samples (53.5 and 49.2 mg respectively) were suspended in ethanol (100 mL) with stirring. At each time point, 1.5 mL was extracted from both samples and centrifuged to isolate the solid, which was then returned to the solution with 1 mL of fresh ethanol. The extracted 1.5 mL was analysed by UV/Vis (absorbance at 536 nm), to determine the concentration of sudan red dye released into the supernatant. The second sample released dye more quickly than the first, but by 100 minutes, both samples had released >90% of the encapsulated sudan red dye.

For data set [1] the following is noted: silica shell capsules loaded by post impregnation; after four hours; cited from earlier work.
Data set [2] in a line: Integrity of retinol after encapsulation (UV/Visible spectra, leaching into ethanol). In kind it is physicochemical. The text has this:
The UV/Visible spectra of the both retinol-doped and undoped phenylsiloxane particles dispersed in PTFE powder (10 wt %), were collected using a diffuse reflectance accessory. […] The bandshift from 325 nm in ethanol solution to 335 nm in the solid is due to difference of environment experienced by the retinol molecule. […] This is likely to be due to exposure to low pH (=1.0) during the hydrolysis of TMOS.

The nature of data set [3]: Release into 50/50 v/v ethanol/water. In kind it is physicochemical. Particulars: phenylsiloxane particles. As for the experimental part:
Release of retinol from the particles into 50:50 (v/v) ethanol:water solution was measured over a period of 11 days. Due to decomposition of retinol released into the solution, the supernatant was refreshed at each time point, and the release measured using UV/Vis spectroscopy (peak at 325 nm). Approximately 11% of the encapsulated retinol was released after one day, followed by slower release thereafter.
as §1, §2

Data set [4] in a line: Release into sodium hydroxide solution at pH=12. In kind it is physicochemical. To be noted: Example 3, after 27 days, both samples (phenylsiloxane and vinylsiloxane). As for the experimental part: The rate of release of diuron into sodium hydroxide solution at pH=12 was measured over a period of one month. Analysing the extent of release is somewhat problematic due to the low solubility of diuron in water. In order to determine the release characteristics, diuron-doped particles (about […]) were suspended in NaOH solution (0.01 mol dm^−3, 50 mL) and stirred. At one-week intervals, the solution was centrifuged and the supernatant removed. The diuron-doped particles were then resuspended in a fresh solution of NaOH (0.01 mol dm^−3, 50 mL) and stirred. The removed supernatant was shaken with octanol (10 mL) in a separating flask to extract dissolved diuron. This was repeated twice, and the resulting approximately 30 mL organic fraction was reserved for diuron analysis by HPLC. The amount of diuron released after 27 days was about 5% (of the total encapsulated) for both samples. The amount released was less than expected compared with the dissolution results at pH=12. This could reflect an incomplete extraction of diuron from the aqueous phase during the process of shaking with octanol.

Turning to `CCCCNc1ccc(NCCCC)c2c1C(=O)c1ccccc1C2=O` [Solvent blue 35], the Dye released result in the data set “Release into ethanol” (similar sample to Example 5, 100% ethanol, after several minutes) is listed as “about 40%”.

For the compound `C=C(C)[C@H]1CC=C(C)CC1` [limonene], the “Weight removed from the solid on leaching in ethanol” value in “Release into ethanol” (15 ml limonene: 30 ml PTMS, HPLC) is on record as “about 3%”.

Turning to `C1=Cc2nc1c(-c1ccccc1)c1ccc([nH]1)c(-c1ccccc1)c1nc(c(-c3ccccc3)c3ccc([nH]3)c2-c2ccccc2)C=C1` [tetraphenyl porphyrin], in data set [1], the “Porphyrin leached from the particles” value is given as 60%.

In the case of `CC1=C(/C=C/C(C)=C/C=C/C(C)=C/CO)C(C)(C)CCC1` [retinol], the Integrity after encapsulation entry is “has not been damaged” in data set [2] (phenylsiloxane particles, absorption peak at 325 nm on release into ethanol) and “has been degraded” in data set [2] (silica particles made by double emulsion process with TMOS, no peak at 325 nm). Besides, the Encapsulated dopant released entry in data set [3] (Example 1, 50:50 (v/v) ethanol:water, after one day) is on record as “Approximately 11%”.

Take `CN(C)C(=O)Nc1ccc(Cl)c(Cl)c1` [diuron]: in data set [4], the “Amount released (of the total encapsulated)” value was “about 5%”.

On to Sudan red, for which the Encapsulated dye released entry is given as “approximately 70%” in “Release into ethanol” (Example 6, phenylsiloxane particles, within one hour) and > 90% in “Release into ethanol” (Example 7, vinylsiloxane particles, by 100 minutes, both samples). For the same compound, the “Release (in words)” value in data set [3] (Example 6, 50/50 v/v ethanol/water) was “slow release”.

The values above are taken from patent publication US9017643B2, “Particles comprising a releasable dopant therein” (Australian Nuclear Science and Technology Organisation, priority 2005, dated 2015).
